Source: patent US20110237644A1, “UBIQUITIN SPECIFIC PROTEASES RESPONSIBLE FOR MCL-1 STABILITY AND USES THEREOF” (Les Laboratoires Servier, priority 2008, published 2011)

Key:
HeLa cells = test: Flow cytometry, subG1-phase cells (apoptosis); format: cell-based, human; conditions: ABT-737 (3 μM) in Luc siRNA-treated HeLa cells
Experimental: FIG. 13: Flow cytometry of HeLa cancer cell transfected with luc, mcl-1, USP46v1, USP46v4 or USP46 pool siRNA. Cell cycle was determined 72 h after siRNA transfection and 18 h after ABT-737 treatment (3 μM).
FIG. 14: ABT-737-induced subG1 transition in HeLa cells determined 72 h after siRNA transfection and 24 h after ABT-737 treatment. The percentage of cells in the subG1 (<2N) are means+/−SD of duplicate values (A). Mcl-1 endogenous level was also determined in the presence of siRNA targeting either luciferase, Mcl-1 or USP46. Anti-Stat3 antibody was used as loading control (B).
All cell lines used were maintained in their respective medium. All culture media were supplemented with 100 units/ml penicillin and 0.1 mg/ml streptomycin, and cell lines were incubated at 37° C. in a humidified atmosphere containing 5% CO2. For siRNA transfection, siRNA (40 pmol, 72 nM final) were complexed with 2 μl of Oligofectamine (Invitrogen) in Opti-MEM (Invitrogen) and added to 24-well plates prior to cell seeding. In all conditions, Opti-MEM was replaced with appropriate medium 5 hours after transfection. […]
To confirm the effect of USP46 siRNA on the sensitization of cells to ABT-737-induced apoptosis in HeLa cells, the number of subG1-phase cells is quantified which reflect mainly apoptosis. […]

Mcl-1 = Mcl-1 (Homo sapiens, UniProt Q07820); conditions: cited from earlier work
Sequence of Mcl-1 (Q07820 whole entry, species assumed): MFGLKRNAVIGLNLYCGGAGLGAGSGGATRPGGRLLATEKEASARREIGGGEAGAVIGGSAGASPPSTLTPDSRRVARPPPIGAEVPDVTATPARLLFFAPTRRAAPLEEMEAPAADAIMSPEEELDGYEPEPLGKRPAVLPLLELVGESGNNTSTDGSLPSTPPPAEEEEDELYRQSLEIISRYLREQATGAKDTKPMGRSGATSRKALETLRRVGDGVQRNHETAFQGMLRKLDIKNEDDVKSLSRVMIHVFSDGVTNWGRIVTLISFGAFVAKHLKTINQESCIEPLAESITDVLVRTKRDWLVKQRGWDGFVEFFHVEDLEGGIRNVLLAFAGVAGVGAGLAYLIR

A1 = target: T1, A1 (Homo sapiens, UniProt Q16548); conditions: cited from earlier work
T1 sequence (Q16548 1-175): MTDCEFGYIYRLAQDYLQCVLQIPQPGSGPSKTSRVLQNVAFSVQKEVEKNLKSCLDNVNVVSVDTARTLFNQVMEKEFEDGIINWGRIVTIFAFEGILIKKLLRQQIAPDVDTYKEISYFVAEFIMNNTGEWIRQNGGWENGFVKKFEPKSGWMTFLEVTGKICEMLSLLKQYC

Mcl-1 in HCT116 cells = test: USP siRNA screening on Mcl-1 half-life with cycloheximide, Western blot; format: cell-based, human; conditions: confirmation experiment
Experimental: FIG. 1 (FIGS. 1.1, 1.2, 1.3): Schematic representation of Mcl-1 modulation following USP silencing at t=0, 30 min or 1 h of cycloheximide treatment in HCT116 cells. Mcl-1 increase and decrease are respectively presented in blue and green and siRNA toxicity is presented in grey. Absence of color corresponds to absence of any effect. Selected USP for confirmation experiments are highlighted in green (USP5, USP13, USP19, USP21, USP22, USP26, USP28, USP38, USP42 and USP46). SiRNA designed to target pairs of USP are indicated on the right of the table.
For the screening, the indicated amounts of siRNA (40 pmol, 72 nM final) were complexed with 2 μl of Oligofectamine (Invitrogen) in Opti-MEM (Invitrogen) and added to 24-well plates prior to cell seeding. 150 000 HCT116 cells were next plated. Opti-MEM was replaced with appropriate medium 5 hours after transfection. After 72 h of transfection and before harvesting, cells were treated or not with cycloheximide (30 μg/ml) for 30 min or 1 hour or treated with MG132 (30 μM) for 90 min.
Cells were washed once in chilled PBS and harvested by trypsination. Floating and trypsinized cells were pooled and collected by centrifugation. […] Proteins were quantitated using bicinchoninic acid (Sigma-Aldrich) according to manufacturer's instructions. […] Signal was detected using ECL reagent (Amersham) following manufacturer's instructions. […]

SMILES | subG1 cells (HeLa cells) | affinity for Mcl-1 (Mcl-1) | affinity for A1 (A1) | endogenous Mcl-1 level (Mcl-1 in HCT116 cells)
CN(C)CC[C@H](CSc1ccccc1)Nc1ccc(S(=O)(=O)NC(=O)c2ccc(N3CCN(Cc4ccccc4-c4ccc(Cl)cc4)CC3)cc2)cc1[N+](=O)[O-] [ABT-737] | 35%±6.6% | low affinity | low affinity | 
C[C@@H]1C[C@@H]([C@H](O)CC2CC(=O)NC(=O)C2)C(=O)[C@@H](C)C1 [cycloheximide] |  |  |  | significant decrease
